The target of assay [1] is T1, Cholesteryl ester transfer protein (Homo sapiens, UniProt P11597).
T1 sequence (P11597 whole entry): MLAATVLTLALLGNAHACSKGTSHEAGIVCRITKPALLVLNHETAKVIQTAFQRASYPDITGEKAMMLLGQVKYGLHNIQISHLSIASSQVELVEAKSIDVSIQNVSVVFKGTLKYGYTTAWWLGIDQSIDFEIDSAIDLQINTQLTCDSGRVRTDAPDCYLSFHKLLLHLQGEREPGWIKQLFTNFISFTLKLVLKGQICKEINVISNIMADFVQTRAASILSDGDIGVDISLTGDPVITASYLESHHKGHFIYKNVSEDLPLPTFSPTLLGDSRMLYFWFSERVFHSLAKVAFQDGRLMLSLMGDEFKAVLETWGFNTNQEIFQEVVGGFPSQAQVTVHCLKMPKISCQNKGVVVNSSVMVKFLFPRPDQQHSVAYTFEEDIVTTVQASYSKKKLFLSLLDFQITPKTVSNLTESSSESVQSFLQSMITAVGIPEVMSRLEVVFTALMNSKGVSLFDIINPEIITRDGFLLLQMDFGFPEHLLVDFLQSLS
In words: Inhibition of human plasma derived CETP. In kind it is cell-free.

Assay [2] deals with T2, Cholesteryl ester transfer protein (Homo sapiens) (UniProt P11597).
T2 sequence (whole entry): T1 sequence (P11597 whole entry)
In words: Inhibition of human plasma derived CETP relative to control. The settings on record: concentration not given here. Also noted: concentration or dose not given beside the values.

`OC(CN1c2cccc(-c3cccc(OC(F)(F)F)c3)c2CCC1c1cccc(C(F)(F)F)c1)C(F)(F)F` (stereo in doubt; 48) [listing 1 of 2 here]: in assay [1], the 50% inhibitory concentration (IC50) is 143 nM.
`CCc1cc(Oc2cccc3c2CCC(c2cccc(OC(F)(F)C(F)F)c2)N3CC(O)C(F)(F)F)ccc1Cl` (single isomer, unassigned; diastereomer 2) showed an inhibition in assay [2] of 86%.
`N#Cc1cccc(-c2cccc3c2CCC(c2cccc(OC(F)(F)C(F)F)c2)N3CC(O)C(F)(F)F)c1` (single isomer, unassigned; diastereomer 2) gave an inhibition in assay [2] of 21%.
The same measure, in the same setting: the same measure for `O[C@H](CN1c2cccc(-c3cccc(OC(F)(F)F)c3)c2CC[C@H]1c1cccc(OC(F)(F)F)c1)C(F)(F)F`: 46%; for `OC(CN1c2cccc(-c3cccc(OC(F)(F)F)c3)c2CCC1c1cccc(OC(F)(F)C(F)F)c1)C(F)(F)F` (single isomer, unassigned; 39): 0%.
On to `COc1cccc(-c2cccc3c2CCC(c2cccc(OC(F)(F)C(F)F)c2)N3CC(O)C(F)(F)F)c1` (single isomer, unassigned; diastereomer 1) [listing 1 of 2 here], for which the IC50 in assay [1] is 126 nM.
On the same count and under the same terms, the result for `OC(CN1c2cccc(-c3cccc(F)c3)c2CCC1c1cccc(OC(F)(F)C(F)F)c1)C(F)(F)F` (single isomer, unassigned; diastereomer 1) [listing 1 of 2 here] reads 117 nM.
In the case of `OC(CN1c2cccc(-c3cccc(Cl)c3Cl)c2CCC1c1cccc(OC(F)(F)C(F)F)c1)C(F)(F)F` (single isomer, unassigned; diastereomer 2), the inhibition in assay [2] is 86%.
`OC(CN1c2cccc(-c3cccc(F)c3)c2CCC1c1cccc(OC(F)(F)C(F)F)c1)C(F)(F)F` (single isomer, unassigned; diastereomer 1) [listing 2 of 2 here] displayed an inhibition in assay [2] of 93%.
In the case of `OC(CN1c2cccc(-c3cccc(Cl)c3)c2CCC1c1cccc(OC(F)(F)C(F)F)c1)C(F)(F)F` (single isomer, unassigned; diastereomer 1) [listing 1 of 2 here], in assay [2], the inhibition was 67%.
Same read-out and setting: the result for `OC(CF)CN1c2cccc(-c3cccc(OC(F)(F)F)c3)c2CCC1c1cccc(OC(F)(F)F)c1` (single isomer, unassigned; diastereomer 1) reads 70%.
On to `OC(CN1c2cccc(-c3cccc(OC(F)(F)F)c3)c2CCC1c1cccc(OC(F)(F)C(F)F)c1)C(F)(F)F` (single isomer, unassigned; 38), for which the inhibition in assay [2] is 9%.
Turning to `OC(CN1c2cccc(-c3cccc(Cl)c3Cl)c2CCC1c1cccc(OC(F)(F)C(F)F)c1)C(F)(F)F` (stereo in doubt; 17), in assay [2], the inhibition was 67%.
Turning to `OC(CN1c2cccc(-c3cccc(OC(F)(F)F)c3)c2CCC1c1cccc(OC(F)(F)C(F)F)c1)C(F)(F)F` (single isomer, unassigned; 20) [listing 1 of 2 here], in assay [1], the IC50 came to 300 nM.
`N#Cc1cccc(-c2cccc3c2CCC(c2cccc(OC(F)(F)C(F)F)c2)N3CC(O)C(F)(F)F)c1` (single isomer, unassigned; diastereomer 1) came in with an inhibition in assay [2] of 85%.
On the same count and under the same terms, the result for `OC(CN1c2cccc(-c3cccc(OC(F)(F)F)c3)c2CCC1c1ccc(OC(F)(F)C(F)F)cc1)C(F)(F)F` (stereo in doubt; 41) reads 14%; that for `OC(CN1c2cccc(-c3cccc(OC(F)(F)F)c3)c2CCC1C1CCCCC1)C(F)(F)F` (single isomer, unassigned; form 1), 2%; that for `COc1cccc(-c2cccc3c2CCC(c2cccc(OC(F)(F)C(F)F)c2)N3CC(O)C(F)(F)F)c1` (single isomer, unassigned; diastereomer 2), 38%.
Regarding `OC(CN1c2cccc(-c3cccc(Cl)c3)c2CCC1c1cccc(OC(F)(F)C(F)F)c1)C(F)(F)F` (single isomer, unassigned; diastereomer 1) [listing 2 of 2 here], the IC50 in assay [1] is 64 nM.
Take `OC(CN1c2cccc(-c3cccc(OC(F)(F)F)c3)c2CCC1c1ccccc1)C(F)(F)F` (single isomer, unassigned; diastereomer 2): the inhibition in assay [2] came to 6%.
Still for that read-out and setting: the same measure for `CC(C)C(O)CN1c2cccc(-c3cccc(OC(F)(F)F)c3)c2CCC1c1cccc(OC(F)(F)F)c1` (single isomer, unassigned; form 1): 79%.
`OC(CN1c2cccc(-c3cccc(C(F)(F)F)c3)c2CCC1c1cccc(OC(F)(F)C(F)F)c1)C(F)(F)F` (single isomer, unassigned; diastereomer 1): the inhibition in assay [2] was determined as 93%.
Take `O[C@@H](CN1c2cccc(-c3cccc(OC(F)(F)F)c3)c2CC[C@H]1c1cccc(OC(F)(F)F)c1)C(F)(F)F`: in assay [2], the inhibition turned out to be 20%.
As for `OC(CN1c2cccc(-c3cccc(F)c3)c2CCC1c1cccc(OC(F)(F)C(F)F)c1)C(F)(F)F` (single isomer, unassigned; diastereomer 2), in assay [2], the inhibition is 52%.
Still for that read-out and setting: the same measure for `OC(CN1c2cccc(-c3cccc(OC(F)(F)F)c3)c2CCC1c1cccc(OC(F)(F)F)c1)C(F)(F)F` (stereo in doubt; 52): 68%; for `CC(C)C(O)CN1c2cccc(-c3cccc(OC(F)(F)F)c3)c2CCC1c1cccc(OC(F)(F)F)c1` (single isomer, unassigned; diastereomer 2): 22%.
Still for that read-out and setting: the same measure for `OC(CN1c2cccc(-c3cccc(OC(F)(F)F)c3)c2CCC1C1CCCCC1)C(F)(F)F` (single isomer, unassigned; form 2): 13%; for `OC(CN1c2cccc(-c3cccc(OC(F)(F)F)c3)c2CCC1c1ccccc1)C(F)(F)F` (single isomer, unassigned; diastereomer 1): 21%.
On to `OC(CN1c2cccc(-c3cccc(OC(F)(F)F)c3)c2CCC1c1cccs1)C(F)(F)F` (single isomer, unassigned; diastereomer 1), for which, in assay [2], the inhibition was determined as 28%.
In assay [2], `OC(CCl)CN1c2cccc(-c3cccc(OC(F)(F)F)c3)c2CCC1c1cccc(OC(F)(F)F)c1` (single isomer, unassigned; diastereomer 2) came in with an inhibition of 0%.
For `OC(CCl)CN1c2cccc(-c3cccc(OC(F)(F)F)c3)c2CCC1c1cccc(OC(F)(F)F)c1` (single isomer, unassigned; diastereomer 1), the inhibition in assay [2] came to 56%.
`CCc1cc(Oc2cccc3c2CCC(c2cccc(OC(F)(F)C(F)F)c2)N3CC(O)C(F)(F)F)ccc1Cl` (single isomer, unassigned; diastereomer 1) showed an inhibition in assay [2] of 62%.
On the same count and under the same terms, the result for `OC(CN1c2cccc(-c3cccc(OC(F)(F)F)c3)c2CCC1c1cccs1)C(F)(F)F` (single isomer, unassigned; diastereomer 2) reads 12%; that for `OC(CN1c2cccc(-c3cccc(OC(F)(F)F)c3)c2CCC1c1cccc(C(F)(F)F)c1)C(F)(F)F` (stereo in doubt; 48) [listing 2 of 2 here], 50%; that for `OC(CN1c2cccc(-c3cccc(OC(F)(F)F)c3)c2CCC1c1cccc(C(F)(F)F)c1)C(F)(F)F` (single isomer, unassigned; diastereomer 2), 37%.
The compound `COCC(O)CN1c2cccc(-c3cccc(OC(F)(F)F)c3)c2CCC1c1cccc(OC(F)(F)F)c1` (single isomer, unassigned; diastereomer 1) had an inhibition in assay [2] of 13%.
The same measure, in the same setting: the result for `OC(CN1c2cccc(-c3cccc(OC(F)(F)F)c3)c2CCC1c1ccc(OC(F)(F)C(F)F)cc1)C(F)(F)F` (single isomer, unassigned; diastereomer 1) reads 5%.
In assay [2], `OC(CN1c2cccc(-c3cccc(OC(F)(F)F)c3)c2CCC1C1CCCCC1)C(F)(F)F` (single isomer, unassigned; diastereomer 1) displayed an inhibition of 11%.
In assay [2], `OC(CN1c2cccc(-c3cccc(OC(F)(F)F)c3)c2CCC1c1cccc(OC(F)(F)C(F)F)c1)C(F)(F)F` (single isomer, unassigned; 20) [listing 2 of 2 here] had an inhibition of 86%.
Consider `COc1cccc(-c2cccc3c2CCC(c2cccc(OC(F)(F)C(F)F)c2)N3CC(O)C(F)(F)F)c1` (single isomer, unassigned; diastereomer 1) [listing 2 of 2 here], for which the inhibition in assay [2] is 68%.
For the compound `OC(CN1c2cccc(-c3cccc(Cl)c3)c2CCC1c1cccc(OC(F)(F)C(F)F)c1)C(F)(F)F` (single isomer, unassigned; diastereomer 2), the inhibition in assay [2] was 55%.
In turn, `OC(CN1c2cccc(-c3cccc(OC(F)(F)F)c3)c2CCC1c1cccc(OC(F)(F)C(F)F)c1)C(F)(F)F` (single isomer, unassigned; 19) came in with an inhibition in assay [2] of 100%.
For the compound `OC(CN1c2cccc(-c3cccc(OC(F)(F)F)c3)c2CCC1c1cccc(OC(F)(F)F)c1)C(F)(F)F` (stereo in doubt; 53), in assay [2], the inhibition was 34%.
On the same count and under the same terms, the result for `CCC1CCc2c(-c3cccc(OC(F)(F)F)c3)cccc2N1CC(O)C(F)(F)F` (single isomer, unassigned; diastereomer 2) reads 12%; that for `CCC1CCc2c(-c3cccc(OC(F)(F)F)c3)cccc2N1CC(O)C(F)(F)F` (single isomer, unassigned; diastereomer 1), 44%.
Regarding `CC(C)C(O)CN1c2cccc(-c3cccc(OC(F)(F)F)c3)c2CCC1c1cccc(OC(F)(F)F)c1` (single isomer, unassigned; form 2), in assay [2], the inhibition was found to be 0%.
Compound `OC(CN1c2cccc(-c3cccc(C(F)(F)F)c3)c2CCC1c1cccc(OC(F)(F)C(F)F)c1)C(F)(F)F` (single isomer, unassigned; diastereomer 2) yielded an inhibition in assay [2] of 37%.
In the case of `OC(CF)CN1c2cccc(-c3cccc(OC(F)(F)F)c3)c2CCC1c1cccc(OC(F)(F)F)c1` (single isomer, unassigned; diastereomer 2), in assay [2], the inhibition is 13%.

Source of the values: ChEMBL document CHEMBL1138445, “Design and synthesis of potent inhibitors of cholesteryl ester transfer protein (CETP) exploiting a 1,2,3,4-tetrahydroquinoline platform” (Bioorg Med Chem Lett, 2009).
